Laboratory results as given in ChEMBL document CHEMBL5705893, “Targeting the mitotic checkpoint for cancer therapy with NMS-P715, an inhibitor of MPS1 kinase” (Cancer Res, 2010).
Activity calls are given as the source filed them. The rule behind the calls is not given here.

Legend:
[1] = Antiproliferative activity against human GM14788 cells assessed as inhibition of cell growth incubated for 72 hrs by celltiter-glo assay; assay type: functional, cell-based; conditions: GM14788, 72 h
HeLa [2] = assay: Induction of mitotic arrest in human nocodazole-arrested HeLa cells assessed as delocalization of borealin at 1 micromol/L in presence of MG132; assay type: functional, cell-based; conditions: dose 1.0 µmol/L
MeWo = assay: Antiproliferative activity against human MeWo cells assessed as inhibition of cell growth incubated for 72 hrs by celltiter-glo assay; assay type: functional, cell-based
[3] = molecular target: Mast/stem cell growth factor receptor Kit (Homo sapiens, UniProt P10721); assay: Inhibition of recombinant KIT (unknown origin)
SK-LU-1 = assay: Antiproliferative activity against human SK-LU-1 cells assessed as inhibition of cell growth incubated for 72 hrs by celltiter-glo assay; assay type: functional, cell-based; conditions: SK-LU-1, 72 h
[4] = molecular target: MAP kinase-activated protein kinase 2 (Homo sapiens, UniProt P49137); assay: Inhibition of recombinant MAPKAPK2 (unknown origin)
Activated CDC42 kinase 1 = Activated CDC42 kinase 1 (Homo sapiens, UniProt Q07912); assay: Inhibition of recombinant ACK1 (unknown origin)
[5] = molecular target: Maternal embryonic leucine zipper kinase (Homo sapiens, UniProt Q14680); assay: Inhibition of recombinant MELK (unknown origin)
Granta-519 = assay: Antiproliferative activity against human Granta-519 cells assessed as inhibition of cell growth incubated for 72 hrs by celltiter-glo assay; assay type: functional, cell-based; conditions: Granta-519, 72 h
NCI-H226 = assay: Antiproliferative activity against human NCI-H226 cells assessed as inhibition of cell growth incubated for 72 hrs by celltiter-glo assay; assay type: functional, cell-based; conditions: NCI-H226, 72 h
U2OS [6] = assay: Induction of mitotic arrest in human U2OS cells expressing YFP-alpha-tubulin assessed as mitotic index at 1 micromol/L in presence of MG132 by time-lapse microscopic analysis; assay type: functional, cell-based; conditions: dose 1.0 µmol/L
SW948 = assay: Antiproliferative activity against human SW948 cells assessed as inhibition of cell growth incubated for 72 hrs by celltiter-glo assay; assay type: functional, cell-based; conditions: SW948, 72 h
Insulin receptor = Insulin receptor (Homo sapiens, UniProt P06213); assay: Inhibition of recombinant IR (unknown origin)
C-33-A = assay: Antiproliferative activity against human C-33-A cells assessed as inhibition of cell growth incubated for 72 hrs by celltiter-glo assay; assay type: functional, cell-based
A2780 = assay: Antitumor activity against human A2780 cells xenografted in Athymic nu-nu nude mouse assessed as reduction in histone H3 phosphorylation at 100 mg/kg, po administered for 2 days and measured after 6 hrs by Western blot analysis; assay type: functional, organism-based; conditions: time 54.0 hrs
SU-DHL-6 = assay: Antiproliferative activity against human SU-DHL-6 cells assessed as inhibition of cell growth incubated for 72 hrs by celltiter-glo assay; assay type: functional, cell-based; conditions: SU-DHL-6, 72 h
T47D = assay: Antiproliferative activity against human T47D cells assessed as inhibition of cell growth incubated for 72 hrs by celltiter-glo assay; assay type: functional, cell-based
HeLa [7] = assay: Inhibition of cdc20-MAD2 protein-protein interaction in human nocodazole arrested HeLa cells by Coimmunoprecipitation analysis; assay type: cell-based
HeLa [8] = assay: Inhibition of cdc20-BUB3 protein-protein interaction in human nocodazole arrested HeLa cells by Coimmunoprecipitation analysis; assay type: cell-based
OVCAR-8 = assay: Antiproliferative activity against human OVCAR-8 cells assessed as inhibition of cell growth incubated for 72 hrs by celltiter-glo assay; assay type: functional, cell-based; conditions: OVCAR-8, 72 h
NCI-H1975 = assay: Antiproliferative activity against human NCI-H1975 cells assessed as inhibition of cell growth incubated for 72 hrs by celltiter-glo assay; assay type: functional, cell-based; conditions: NCI-H1975, 72 h
NCI-H2228 = assay: Antiproliferative activity against human NCI-H2228 cells assessed as inhibition of cell growth incubated for 72 hrs by celltiter-glo assay; assay type: functional, cell-based; conditions: NCI-H2228, 72 h
NCI-H322M = assay: Antiproliferative activity against human NCI-H322M cells assessed as inhibition of cell growth incubated for 72 hrs by celltiter-glo assay; assay type: functional, cell-based
[9] = molecular target: Tyrosine-protein kinase ZAP-70 (Homo sapiens, UniProt P43403); assay: Inhibition of recombinant ZAP70 (unknown origin)
[10] = molecular target: High affinity nerve growth factor receptor (Homo sapiens, UniProt P04629); assay: Inhibition of recombinant TRKA (unknown origin)
[11] = molecular target: Mitotic checkpoint serine/threonine-protein kinase BUB1 (Homo sapiens, UniProt O43683); assay: Inhibition of recombinant BUB1 (unknown origin)
RERF-LC-AI = assay: Antiproliferative activity against human RERF-LC-AI cells assessed as inhibition of cell growth incubated for 72 hrs by celltiter-glo assay; assay type: functional, cell-based
SKM-1 = assay: Antiproliferative activity against human SKM-1 cells assessed as inhibition of cell growth incubated for 72 hrs by celltiter-glo assay; assay type: functional, cell-based; conditions: SKM-1, 72 h
U2OS [12] = assay: Induction of mitotic arrest in human U2OS cells at 1 micromol/L incubated for 86 hrs by time-lapse microscopic analysis; assay type: functional, cell-based; conditions: dose 1.0 µmol/L
[13] = molecular target: Serine/threonine-protein kinase haspin (Homo sapiens, UniProt Q8TF76); assay: Inhibition of recombinant Haspin (unknown origin)
SW48 = assay: Antiproliferative activity against human SW48 cells assessed as inhibition of cell growth incubated for 72 hrs by celltiter-glo assay; assay type: functional, cell-based; conditions: SW48, 72 h
DU-145 = assay: Antiproliferative activity against human DU-145 cells assessed as inhibition of cell growth incubated for 72 hrs by celltiter-glo assay; assay type: functional, cell-based; conditions: DU-145, 72 h
[14] = Clearance in Athymic nu-nu mouse at 10 mg/kg, iv measured upto 24 hrs by LC-MS/MS analysis; assay type: ADME, organism-based; conditions: in vivo
[15] = molecular target: Protein-tyrosine kinase 6 (Homo sapiens, UniProt Q13882); assay: Inhibition of recombinant BRK (unknown origin)
NCI-H23 = assay: Antiproliferative activity against human NCI-H23 cells assessed as inhibition of cell growth incubated for 72 hrs by celltiter-glo assay; assay type: functional, cell-based; conditions: NCI-H23, 72 h
T84 = assay: Antiproliferative activity against human T84 cells assessed as inhibition of cell growth incubated for 72 hrs by celltiter-glo assay; assay type: functional, cell-based; conditions: T84, 72 h
[16] = Inhibition of recombinant AUR2 (unknown origin); set-up: species or system Homo sapiens
BXPC-3 = assay: Antiproliferative activity against human BXPC-3 cells assessed as inhibition of cell growth incubated for 72 hrs by celltiter-glo assay; assay type: functional, cell-based; conditions: BXPC-3, 72 h
[17] = Inhibition of recombinant AUR1 (unknown origin); set-up: species or system Homo sapiens
NHDF = assay: Antiproliferative activity against human NHDF cells assessed as inhibition of cell growth incubated for 72 hrs by celltiter-glo assay; assay type: functional, cell-based
U2OS [18] = assay: Inhibition of colony formation in human U2OS cells assessed as decrease in colony number incubated for 22 hrs followed by compound washout and measured after 8 days by crystal violet staining based assay; assay type: functional, cell-based
TK-10 = assay: Antiproliferative activity against human TK-10 cells assessed as inhibition of cell growth incubated for 72 hrs by celltiter-glo assay; assay type: functional, cell-based; conditions: TK-10, 72 h
HeLa [19] = assay: Induction of mitotic arrest in human nocodazole-arrested HeLa cells assessed as delocalization of BUB3 at 1 micromol/L in presence of MG132; assay type: functional, cell-based; conditions: dose 1.0 µmol/L
[20] = Half life in Athymic nu-nu mouse at 10 mg/kg, iv measured upto 24 hrs by LC-MS/MS analysis; assay type: ADME, organism-based; conditions: in vivo

Chain of Insulin receptor (P06213 28-758 limits assumed): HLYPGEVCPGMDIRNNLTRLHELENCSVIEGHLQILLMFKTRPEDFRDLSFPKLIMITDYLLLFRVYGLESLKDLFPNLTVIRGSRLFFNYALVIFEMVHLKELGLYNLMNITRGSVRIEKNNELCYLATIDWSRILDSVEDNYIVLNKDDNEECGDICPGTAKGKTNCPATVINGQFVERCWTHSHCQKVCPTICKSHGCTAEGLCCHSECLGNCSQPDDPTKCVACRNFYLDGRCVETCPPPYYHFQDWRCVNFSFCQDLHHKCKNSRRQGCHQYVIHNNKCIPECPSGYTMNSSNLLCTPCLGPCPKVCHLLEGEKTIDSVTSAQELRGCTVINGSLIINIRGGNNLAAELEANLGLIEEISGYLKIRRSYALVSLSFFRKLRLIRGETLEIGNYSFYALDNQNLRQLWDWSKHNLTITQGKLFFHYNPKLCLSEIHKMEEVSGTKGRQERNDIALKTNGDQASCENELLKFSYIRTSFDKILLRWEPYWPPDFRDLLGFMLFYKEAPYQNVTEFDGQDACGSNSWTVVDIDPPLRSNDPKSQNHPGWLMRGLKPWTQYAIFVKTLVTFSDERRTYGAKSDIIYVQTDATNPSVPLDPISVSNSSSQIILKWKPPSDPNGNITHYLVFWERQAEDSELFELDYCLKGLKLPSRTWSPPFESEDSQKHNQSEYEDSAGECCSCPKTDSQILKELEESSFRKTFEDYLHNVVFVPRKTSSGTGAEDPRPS
Chain of Insulin receptor (P06213 763-1382 limits assumed): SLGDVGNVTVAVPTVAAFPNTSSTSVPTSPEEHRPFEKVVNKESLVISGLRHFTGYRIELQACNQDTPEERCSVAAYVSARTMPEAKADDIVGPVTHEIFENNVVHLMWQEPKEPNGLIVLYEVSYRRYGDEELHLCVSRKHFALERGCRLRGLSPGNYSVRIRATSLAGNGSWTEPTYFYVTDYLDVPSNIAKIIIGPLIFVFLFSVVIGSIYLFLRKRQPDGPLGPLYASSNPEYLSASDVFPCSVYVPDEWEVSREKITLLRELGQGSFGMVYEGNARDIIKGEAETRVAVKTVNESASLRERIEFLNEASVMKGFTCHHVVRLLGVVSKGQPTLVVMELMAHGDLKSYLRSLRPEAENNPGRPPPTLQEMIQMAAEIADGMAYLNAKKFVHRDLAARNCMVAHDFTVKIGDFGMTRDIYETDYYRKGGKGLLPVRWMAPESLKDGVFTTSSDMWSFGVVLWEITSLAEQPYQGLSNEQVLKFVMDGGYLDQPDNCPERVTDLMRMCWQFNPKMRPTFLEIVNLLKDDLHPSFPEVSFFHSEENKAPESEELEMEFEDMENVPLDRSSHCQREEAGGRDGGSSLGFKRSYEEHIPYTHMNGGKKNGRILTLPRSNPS
Chain of Mitotic checkpoint serine/threonine-protein kinase BUB1 (O43683 whole entry): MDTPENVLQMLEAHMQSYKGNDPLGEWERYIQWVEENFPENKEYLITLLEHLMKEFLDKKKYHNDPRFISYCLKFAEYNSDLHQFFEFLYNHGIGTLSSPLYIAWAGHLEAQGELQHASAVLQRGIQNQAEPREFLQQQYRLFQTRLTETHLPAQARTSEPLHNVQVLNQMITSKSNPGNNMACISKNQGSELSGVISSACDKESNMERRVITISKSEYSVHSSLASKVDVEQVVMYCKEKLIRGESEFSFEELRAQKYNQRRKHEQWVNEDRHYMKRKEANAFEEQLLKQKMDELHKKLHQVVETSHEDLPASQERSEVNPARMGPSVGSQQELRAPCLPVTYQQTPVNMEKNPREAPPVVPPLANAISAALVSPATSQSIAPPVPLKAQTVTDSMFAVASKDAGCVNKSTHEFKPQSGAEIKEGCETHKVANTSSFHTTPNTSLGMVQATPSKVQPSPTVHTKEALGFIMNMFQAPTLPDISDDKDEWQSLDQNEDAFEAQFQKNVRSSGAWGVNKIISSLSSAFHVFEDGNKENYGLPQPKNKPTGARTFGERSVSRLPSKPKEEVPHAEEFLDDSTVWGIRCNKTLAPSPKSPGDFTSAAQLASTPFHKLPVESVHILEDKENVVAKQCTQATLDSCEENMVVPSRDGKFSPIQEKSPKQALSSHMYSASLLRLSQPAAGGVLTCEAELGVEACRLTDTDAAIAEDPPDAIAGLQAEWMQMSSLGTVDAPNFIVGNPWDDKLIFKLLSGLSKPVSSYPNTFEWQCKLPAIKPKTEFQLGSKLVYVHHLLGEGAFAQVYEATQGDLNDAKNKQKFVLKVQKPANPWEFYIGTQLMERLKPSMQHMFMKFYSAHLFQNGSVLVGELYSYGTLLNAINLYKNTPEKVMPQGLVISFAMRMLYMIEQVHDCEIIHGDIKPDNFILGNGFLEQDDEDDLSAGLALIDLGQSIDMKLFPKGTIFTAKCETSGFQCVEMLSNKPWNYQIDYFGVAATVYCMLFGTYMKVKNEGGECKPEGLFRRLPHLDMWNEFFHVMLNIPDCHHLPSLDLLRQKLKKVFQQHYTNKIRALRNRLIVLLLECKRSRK
Chain of Maternal embryonic leucine zipper kinase (Q14680 whole entry): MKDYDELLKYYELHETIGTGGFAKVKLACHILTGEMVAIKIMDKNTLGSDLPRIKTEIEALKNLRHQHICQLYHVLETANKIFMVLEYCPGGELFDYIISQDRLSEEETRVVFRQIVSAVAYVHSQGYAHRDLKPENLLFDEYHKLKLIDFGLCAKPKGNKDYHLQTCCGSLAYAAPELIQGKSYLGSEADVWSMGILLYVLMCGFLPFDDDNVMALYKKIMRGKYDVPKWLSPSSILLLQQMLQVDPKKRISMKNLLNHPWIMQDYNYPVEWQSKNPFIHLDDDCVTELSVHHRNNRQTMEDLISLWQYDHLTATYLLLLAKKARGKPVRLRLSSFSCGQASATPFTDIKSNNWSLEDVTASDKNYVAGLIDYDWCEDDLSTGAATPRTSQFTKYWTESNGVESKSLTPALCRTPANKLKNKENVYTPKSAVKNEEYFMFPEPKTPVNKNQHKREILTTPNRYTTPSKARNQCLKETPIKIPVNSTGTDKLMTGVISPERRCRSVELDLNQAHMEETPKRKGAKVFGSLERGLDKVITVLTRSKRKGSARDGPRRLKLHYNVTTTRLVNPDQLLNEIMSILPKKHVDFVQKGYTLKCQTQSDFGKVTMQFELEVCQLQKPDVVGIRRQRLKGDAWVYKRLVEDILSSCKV
Chain of High affinity nerve growth factor receptor (P04629 whole entry): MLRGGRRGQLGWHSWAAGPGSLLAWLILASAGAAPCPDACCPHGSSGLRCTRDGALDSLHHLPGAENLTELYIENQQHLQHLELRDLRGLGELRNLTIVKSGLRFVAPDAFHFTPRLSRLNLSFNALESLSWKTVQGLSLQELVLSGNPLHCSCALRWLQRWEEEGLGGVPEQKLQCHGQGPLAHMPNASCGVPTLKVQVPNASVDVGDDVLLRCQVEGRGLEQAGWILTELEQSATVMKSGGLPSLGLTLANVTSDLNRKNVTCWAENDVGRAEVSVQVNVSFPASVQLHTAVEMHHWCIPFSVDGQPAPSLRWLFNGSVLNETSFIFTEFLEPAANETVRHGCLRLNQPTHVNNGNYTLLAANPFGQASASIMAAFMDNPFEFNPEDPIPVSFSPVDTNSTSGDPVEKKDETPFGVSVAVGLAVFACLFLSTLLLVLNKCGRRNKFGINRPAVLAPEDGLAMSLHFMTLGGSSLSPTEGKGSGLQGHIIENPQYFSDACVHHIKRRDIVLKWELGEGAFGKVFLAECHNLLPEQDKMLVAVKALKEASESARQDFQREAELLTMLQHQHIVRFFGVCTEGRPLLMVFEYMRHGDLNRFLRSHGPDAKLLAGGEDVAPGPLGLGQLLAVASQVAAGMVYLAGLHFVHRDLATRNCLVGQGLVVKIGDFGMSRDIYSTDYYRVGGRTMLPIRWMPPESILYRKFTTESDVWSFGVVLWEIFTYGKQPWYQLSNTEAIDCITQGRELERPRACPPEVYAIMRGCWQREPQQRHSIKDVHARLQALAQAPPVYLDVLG
Chain of Tyrosine-protein kinase ZAP-70 (P43403 whole entry): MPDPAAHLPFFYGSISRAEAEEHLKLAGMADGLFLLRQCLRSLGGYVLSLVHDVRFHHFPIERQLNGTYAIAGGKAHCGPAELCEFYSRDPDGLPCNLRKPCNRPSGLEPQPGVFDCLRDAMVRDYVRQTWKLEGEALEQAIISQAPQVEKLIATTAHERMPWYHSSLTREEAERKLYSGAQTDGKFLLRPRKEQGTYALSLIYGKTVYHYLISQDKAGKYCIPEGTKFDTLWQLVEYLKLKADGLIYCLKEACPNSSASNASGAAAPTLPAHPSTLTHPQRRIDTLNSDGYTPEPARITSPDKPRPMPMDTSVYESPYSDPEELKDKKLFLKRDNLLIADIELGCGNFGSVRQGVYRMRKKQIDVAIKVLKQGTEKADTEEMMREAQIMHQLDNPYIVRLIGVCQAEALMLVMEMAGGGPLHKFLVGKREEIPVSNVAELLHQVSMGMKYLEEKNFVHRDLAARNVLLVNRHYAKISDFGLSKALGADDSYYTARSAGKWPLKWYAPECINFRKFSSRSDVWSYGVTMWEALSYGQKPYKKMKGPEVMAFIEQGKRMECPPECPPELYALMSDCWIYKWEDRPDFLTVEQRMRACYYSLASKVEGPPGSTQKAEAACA
Chain of Protein-tyrosine kinase 6 (Q13882 whole entry): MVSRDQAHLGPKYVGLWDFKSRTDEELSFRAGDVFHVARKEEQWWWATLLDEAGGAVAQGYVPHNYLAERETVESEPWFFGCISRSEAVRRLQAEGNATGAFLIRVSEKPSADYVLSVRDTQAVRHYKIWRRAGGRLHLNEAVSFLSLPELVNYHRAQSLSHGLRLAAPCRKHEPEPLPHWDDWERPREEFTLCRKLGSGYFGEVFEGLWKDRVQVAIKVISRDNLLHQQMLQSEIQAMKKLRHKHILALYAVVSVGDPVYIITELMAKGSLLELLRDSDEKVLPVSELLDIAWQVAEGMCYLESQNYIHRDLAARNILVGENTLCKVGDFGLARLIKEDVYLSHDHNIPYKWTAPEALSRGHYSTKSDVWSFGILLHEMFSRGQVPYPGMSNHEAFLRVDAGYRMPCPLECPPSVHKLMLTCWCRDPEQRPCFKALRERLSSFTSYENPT

SMILES: CCc1cccc(CC)c1NC(=O)c1nn(C)c2c1CCc1cnc(Nc3ccc(C(=O)NC4CCN(C)CC4)cc3OC(F)(F)F)nc1-2
- IC50 [1]: 10 µM
- Activity (HeLa [2]): Active
- IC50 (MeWo): 3.26 µM
- IC50 [3]: > 10 µM
- IC50 (SK-LU-1): 5 µM
- IC50 [4]: > 10 µM
- IC50 (Activated CDC42 kinase 1): > 10 µM
- IC50 [5]: 6.01 µM
- IC50 (Granta-519): 1690 nM
- IC50 (NCI-H226): 2010 nM
- Activity (U2OS [6]): inactive
- IC50 (SW948): 1960 nM
- IC50 (Insulin receptor): > 10 µM
- IC50 (C-33-A): 3.01 µM
- Activity (A2780): Active
- IC50 (SU-DHL-6): 10 µM
- IC50 (T47D): 2860 nM
- inhibition (HeLa [7]): Active
- inhibition (HeLa [8]): Active
- IC50 (OVCAR-8): 1210 nM
- IC50 (NCI-H1975): 10 µM
- IC50 (NCI-H2228): 5.81 µM
- IC50 (NCI-H322M): 1560 nM
- IC50 [9]: > 10 µM
- IC50 [10]: > 10 µM
- IC50 [11]: > 10 µM
- IC50 (RERF-LC-AI): 2070 nM
- IC50 (SKM-1): 10 µM
- Activity (U2OS [12]): Active
- IC50 [13]: > 10 µM
- IC50 (SW48): 551 nM
- IC50 (DU-145): 1930 nM
- clearance [14]: 10 mL/min/kg
- IC50 [15]: > 10 µM
- IC50 (NCI-H23): 1220 nM
- IC50 (T84): 10 µM
- IC50 [16]: > 10 µM
- IC50 (BXPC-3): 2180 nM
- IC50 [17]: > 10 µM
- IC50 (NHDF): 10 µM
- Activity (U2OS [18]): Active
- IC50 (TK-10): 1540 nM
- Activity (HeLa [19]): Active
- half-life [20]: 459 min
